Experimental data reported in patent US6326363A, “Methylenebisphosphonic acid derivatives” (Leiras Oy, priority 1997, dated 2001).
Counter-ions that a name gives are not always drawn. Like-named read-outs stand apart in the source and are kept apart here.

What was measured:
[1] = system: PTH-induced bone resorption in mouse calvaria; experiment: Inhibition of PTH-induced bone resorption in mouse calvaria in vitro; format: cell-based; conditions: 72 h, 100 μmol/l, PTH 10 nM, cultured for three days, read-out: Inhibition of resorption 100 (PTH-x)/PTH
Method: Newborn mice were labeled by a subcutaneous injection of ^45 Ca four days prior to sacrifice. Calvarial bone fragments were microdissected from the parietal bones, preincubated in culture medium with indomethacin, washed and then cultured for three days with and without a bisphosphonate prodrug. Bone resorption was stimulated by parathyroid hormone (PTH, 10 nM), and the effect on this stimulated resorption was measured. As presented in Table 4, an inhibition of resorption by the compounds was shown. The inhibition by the bisphosphonate prodrugs was even higher than with the parent drug.

[2] = Enzymatic hydrolysis of prodrug molecules in 80% plasma at pH 7.40 and 37° C.; format: in vitro ADME; conditions: pH 7.4, 37° C.; for metabolised at 1 min: 1 minute, mean ± SE, n = 3, read-out: clodronate released in the first sample (1 minute)
Method: The enzyme hydrolysis rate of prodrug molecules was determined in a plasma/buffer mixture (80%-20%) at pH 7.40 and at 37° C.
The compound to be tested was dissolved in the buffer part and, after dissolution, plasma with a temperature of 37° C. was added. The solution was stirred with a magnetic stirrer and a sample of 0.25 ml was taken from the mixture at intervals of 1-360 min (depending on the molecule to be tested), to which sample 0.25 ml methanol (denatures proteins) was added. The sample was centrifuged, the clear supernatant was evaporated to dryness, the residue was dissolved in the eluent of the HPLC method, and the remaining prodrug concentration and the amount of the clodronate formed were analysed with HPLC. From the concentrations obtained a first-order graph was drawn (the remaining prodrug amount as a function of time), wherefrom a dissociation constant and half-life (T1/2) were determined.

[3] = Distribution coefficient octanol/buffer (log P); format: physicochemical; conditions: 1-octanol/buffer
Method: The fat-solubility of the compounds of the test was studied by determining the distribution coefficients (P) of the compounds at pH 7.4 and 2.0. The analysis were carried out in a mixture of octanol and buffer.
When the octanol/buffer method of analysis was used, 1-octanol and the phosphate buffer used (50 mM, pH 7.40, μ=0.15) were saturated with each other by stirring a mixture of these overnight. Phases were separated and a prodrug standard solution with the desired concentration was made in the buffer phase. Appropriate volumes of 1-octanol and the standard solution of phosphate buffer were mixed and the mixture was shaken vigorously for 60 min. After shaking the phases were separated and the concentration of the compound to be studied was analysed from the buffer phase before and after distribution according to the above described HPLC method. Distribution coefficient P was calculated from the following formula: [formula]
C1 =concentration of the compound to be studied before distribution
Ca =concentration of the compound to be studied after distribution
Va =volume of the buffer phase
Vo =volume of the octanol phase

[4] = Water-solubility in phosphate buffer (50 mM, pH 7.4), HPLC; format: physicochemical; conditions: for solubility at 2 h: 50 mm phosphate buffer, aqueous buffer
Method: Clodronate and the prodrug molecules of clodronate were analysed with reverse phase/ion pair HPLC method (an isocratic program for clodronate; a gradient program for the simultaneous analysis of clodronate and a prodrug molecule), where detection of compounds was based on the measurement of light scattering caused by unevaporated compounds.
Equipment: Merck LaChrom HPLC (Merck Hitachi Ltd., Japan) Kromasil 100 RP-C8 (250×4.6 i.d., 5 μm) (Higgins Analytical Inc., USA)
Isocratic programe: methanol/ammoniumacetate buffer (3:97, pH 4.6), which contained 2.25% butylamine as ion pair reagent, flow 1.2 ml/min.
Gradient program: methanol (3%→40-60% during 1 min-6 min)/ammoniumacetate (pH 4.6), which contained 2.25% butylamine as ion pair reagent, flow 1.2 ml/min.
Detector: Sedex 55 light scattering detector (Sedere, France)
Settings: temperature of detector 70° C., pressure of evaporating gas (filtered air) 2.2 bar.
Water-solubilities of prodrug molecules were determined in phosphate buffer (50 mM, pH 7.4) at room temperature.
An excess of the compound to be tested was dissolved in about 5 ml of phosphate buffer. The suspension was stirred for 2 hours, the suspension was filtered, and the prodrug concentration of the filtrate was determined with HPLC. Water-solubility of clodronate was determined with the same method.

[5] = Chemical hydrolysis of prodrug molecules in phosphate buffer at 37° C.; format: physicochemical; conditions: phosphate buffer 50 mM; for half-life: 50 mm phosphate buffer
Method: Chemical hydrolysis of prodrug molecules was analysed in phosphate buffer (50 mM, μ=0.15) at pH 2.0 and 7.4 and at 37° C.
The compound to be studied was dissolved in 10.0 ml of phosphate buffer. The solution was stirred for 24-1000 h in a water bath with a magnetic stirrer, and samples were taken at regular intervals and analysed with HPLC. From the results a graph of pseudo I order was drawn, where the amount of the remaining compound was shown as a function of time. From the slope (kk) of the linear graph so obtained, a dissociation constant k (k=2.303×-kk) was calculated, wherefrom the half-life T1/2 (T1/2 =0.693/k) of the prodrug molecule under the circumstances in question was calculated.

[6] = Absorption and hydrolysis in vivo, oral bioavailability in fasted rats; conditions: rat, 100 umol/kg, urine 72 hours, compared with intravenous, parent drug analyzed
Method: Absorption and hydrolysis of the compounds in vivo was studied in fasted rats. Absorption was determined from the total amount excreted into urine during 72 hours after administration. For the determination of oral bioavailability excreted amount after oral administration was compared with that after intravenous administration. The urine samples were analyzed for the parent drug with mass-selective or nitrogen phosphorous-detection gas chromatography. The results presented in Table 5 show increased bioavailability of the bisphosphonate prodrugs compared with that of the parent compound.

[7] = pH 2.0, read-out: Log P (pH 2.0)
[8] = 1-octanol/phosphate buffer, pH 7.4, read-out: Log P (pH 7.4)
[9] = phosphate buffer 50 mM, pH 7.4, room temperature
[10] = μ=0.15, pH 2.0, 37° C., read-out: T1/2 pH 2.0 (converted)
[11] = μ=0.15, pH 7.4, 37° C., read-out: T1/2 pH 7.4 (converted)

Structure (SMILES) | metabolised at 1 min [2] [%] | logD [3, 7] | logD [3, 8] | solubility at 2 h [4, 9] [mg/mL] | half-life [5, 10] [h] | inhibition at 100 µM [1] [%] | also measured
CCCCCCCCCCCCCC(=O)OP(=O)(O)C(Cl)(Cl)P(=O)(O)OC(=O)CCCCCCCCCCCCC [Compound 3, P,P'-di(tetradecanoyl)(dichoromethylene)bisphosphonate disodium salt] |  |  |  |  |  | 50.5 | 
CCCCCCCCCCCCCCCCCC(=O)OP(=O)(O)C(Cl)(Cl)P(=O)(O)OC(=O)CCCCCCCCCCCCCCCCC [Compound 4, P,P'-di(octadecanoyl)(dichloromethylene)bisphosphonate disodium salt] |  |  |  |  |  | 53.9 | 
O=C(OP(=O)(O)C(Cl)(Cl)P(=O)(O)OC(=O)c1ccccc1)c1ccccc1 [Benzoe acid dianhydride (Ex. 7), P,P'-Di(benzoyl)(dichloromethylene)bisphosphonate disodium salt] | 91.4 ± 8.6 | -1.5 | -2.4 | 6 | 286 |  | half-life [5, 11]: 235 h
CC(C)C(=O)OP(=O)(O)C(Cl)(Cl)P(=O)(O)OC(=O)C(C)C [Compound 2, P,P-di(isobutyroyl)(dichloromethylene)bisphosphonate disodium salt] |  |  |  |  |  | 64.8 | 
O=P([O-])([O-])C(Cl)(Cl)P(=O)(O)O.[Na+].[Na+] [Clodronate, dichloromethylenebisphosphonic acid disodium salt, reference compound] |  |  |  | 397 |  | 43.2 | Water-solubility (in words) ([4]; reason why the distribution coefficient cannot be determined): extremely water-soluble; bioavailability at 72 h [6]: 2.17%

Now from value to molecule, other results behind:

metabolised at 1 min [2] [%] | logD [3, 7] | logD [3, 8] | solubility at 2 h [4, 9] [mg/mL] | half-life [5, 10] [h] | Structure (SMILES) | inhibition at 100 µM [1] [%] | also measured
98 ± 6.9 | -1.9 | -2.4 | 172 | 0.8 | CCCC(=O)OP(=O)(O)C(Cl)(Cl)P(=O)(O)OC(=O)CCC [Butanoic acid dianhydride (Ex. 7), P,P'-Dibutyroyl(dichloromethylene)bisphosphonate disodium salt] |  | T1/2 pH 7.4 ([5]; μ=0.15, pH 7.4, 37° C.): 31.3 h
 | -2 | -2.3 |  |  | CC(C)(C)C(=O)OP(=O)(O)C(Cl)(Cl)P(=O)(O)OC(=O)C(C)(C)C [Pivalyl acid dianhydride (Ex. 7), P,P'-Di(pivaloyl)(dichloromethylene)bisphosphonate disodium salt] |  | T1/2 Plasma [2]: 3.3 ± 0.6 h; Water-solubility ([4]; phosphate buffer 50 mM, pH 7.4, room temperature, 120 min): 23,5 mg/ml; half-life [5, 11]: 790 h; T1/2 pH 2.0 ([5]; μ=0.15, pH 2.0, 37° C.): 8.6 h
102 ± 1.2 | -1.4 | -2.2 | 190 | 0.7 | CC(=O)OP(=O)(O)C(Cl)(Cl)P(=O)(O)OC(C)=O [Compound 1, P,P'-Diacetyl(dichloromethylene)bisphosphonate disodium salt] | 48.7 | T1/2 pH 7.4 ([5]; μ=0.15, pH 7.4, 37° C.): 15.2 h
